# Source: ChEMBL document CHEMBL5528082 (J Med Chem, 2024)
# Assays:
# Staphylococcus aureus [1] = assay: Antibacterial activity against Staphylococcus aureus ATCC 25923 incubated for 24 hrs by CLSI based broth microdilution assay; assay type: functional
# [2] = Cytotoxicity against human NCM460 cells assessed as inhibition rate of cell growth at 100 uM incubated for 24 hrs by CCK8 assay relative to control; assay type: toxicity, cell-based
# Staphylococcus aureus [3] = assay: Antibacterial activity against TMP-resistant Staphylococcus aureus BHKS 721 incubated for 24 hrs by CLSI based broth microdilution assay; assay type: functional
# Staphylococcus aureus [4] = assay: Antibacterial activity against TMP-resistant Staphylococcus aureus BHKS 227 incubated for 24 hrs by CLSI based broth microdilution assay; assay type: functional
# [5] = Cytotoxicity against HEK293 cells assessed as inhibition rate of cell growth at 100 uM incubated for 24 hrs by CCK8 assay relative to control; assay type: toxicity, cell-based; conditions: human
# Staphylococcus aureus [6] = assay: Antibacterial activity against Staphylococcus aureus USA 300 incubated for 24 hrs by CLSI based broth microdilution assay; assay type: functional
# [7] = system: Dihydrofolate reductase (Staphylococcus aureus); conditions: dose 100.0 nM
# Staphylococcus aureus [8] = assay: Antibacterial activity against TMP-resistant Staphylococcus aureus BHKS 723 incubated for 24 hrs by CLSI based broth microdilution assay; assay type: functional
# Dihydrofolate reductase = Dihydrofolate reductase (Staphylococcus aureus, UniProt P0A017); assay: Inhibition of Staphylococcus aureus DHFR expressed in Escherichia coli BL21 (DE3) using DHF as substrate preincubated for 10 mins followed by substrate addition measured for 10 mins in presence of NADPH by spectrophotometry
# Chain of Dihydrofolate reductase (P0A017 whole entry): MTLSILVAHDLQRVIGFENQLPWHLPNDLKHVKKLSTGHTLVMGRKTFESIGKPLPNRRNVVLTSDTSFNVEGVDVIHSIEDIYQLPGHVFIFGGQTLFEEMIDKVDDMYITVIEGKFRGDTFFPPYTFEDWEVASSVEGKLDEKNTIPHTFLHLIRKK
Structure (SMILES),MIC (Staphylococcus aureus [1]) [µg/mL],"inhibition at 24 h, 100 µM [2] [%]",MIC (Staphylococcus aureus [3]) [µg/mL],MIC (Staphylococcus aureus [4]) [µg/mL],"inhibition at 24 h, 100 µM [5] [%]",MIC (Staphylococcus aureus [6]) [µg/mL],inhibition [7] [%],MIC (Staphylococcus aureus [8]) [µg/mL],IC50 (Dihydrofolate reductase) [nM]
COc1cc(C(C)C)c(Oc2cnc(N)nc2N)cc1-c1ccc(O)cc1,0.125,53.1,1,0.5,22.9,0.063,72.3,8,–
COc1cc(C(C)C)c(Oc2cnc(N)nc2N)cc1-c1ccc2c(c1)OCCO2,0.5,64.7,16,4,19.6,0.25,27.2,16,–
COc1cc(C(C)C)c(Oc2cnc(NC(C)=O)nc2NC(C)=O)cc1I,> 32,18.2,> 32,> 32,26.7,> 32,32.6,> 32,–
CCOc1cc(C(C)C)c(Oc2cnc(N)nc2N)cc1I,0.016,13.9,4,0.25,57.9,0.016,42.6,4,–
CC(C)c1cc(OCC2CCCCC2)c(I)cc1Oc1cnc(N)nc1N,0.5,65,32,> 32,36.7,0.5,59.8,> 32,–
CCCCOc1cc(C(C)C)c(Oc2cnc(N)nc2N)cc1-c1cc(Cl)cc(Cl)c1,2,42.5,8,8,43,1,75,8,–
CC(C)c1ccc(-c2cc(Oc3cnc(N)nc3N)c(C(C)C)cc2OCC2CC2)cc1,1,30.2,2,4,19.3,1,75.4,4,–
COc1ccc(-c2cc(Oc3cnc(N)nc3N)c(C(C)C)cc2OC)cc1,0.25,69.5,16,1,19.9,0.125,19.9,16,–
COc1cc(C(C)C)c(Oc2cnc(N)nc2N)cc1-c1cccc(Cl)c1,0.063,18.8,4,1,29.3,0.063,67.2,4,–
CCC(C)c1cc(OC)c(I)cc1Oc1cnc(N)nc1N (configuration not stated),0.125,62.7,8,1,28.5,0.125,56.3,16,–
CCCCOc1cc(C(C)C)c(Oc2cnc(N)nc2N)cc1-c1ccc(C(C)C)cc1,1,40.9,4,8,46.6,2,64,2,–
COc1cc(C(C)C)c(Oc2cnc(N)nc2N)cc1-c1ccc(-c2ccccc2)cc1,0.5,66,4,2,31.5,0.5,26.8,4,–
COc1cccc(OC)c1C(=O)N[C@@H]1C(=O)N2[C@@H]1SC(C)(C)[C@@H]2C(=O)O [METHICILLIN],1,–,1,64,–,128,–,1,–
COc1cc(OC)cc(-c2cc(Oc3cnc(N)nc3N)c(C(C)C)cc2OC)c1,2,66.8,32,8,29.7,2,40.5,32,–
CCCC(C)Oc1cc(C(C)C)c(Oc2cnc(N)nc2N)cc1I (configuration not stated),0.063,11.5,4,2,55.6,0.063,31.7,4,–
CC(C)CCOc1cc(C(C)C)c(Oc2cnc(N)nc2N)cc1I,0.125,35.6,8,2,64,0.125,79.6,8,–
COc1cc(C(C)C)c(Oc2cnc(N)nc2N)cc1-c1ccncc1,1,6.02,> 32,4,2.09,1,37.2,32,–

Structure (SMILES),MIC (Staphylococcus aureus [1]) [µg/mL],"inhibition at 24 h, 100 µM [2] [%]",MIC (Staphylococcus aureus [3]) [µg/mL],MIC (Staphylococcus aureus [4]) [µg/mL],"inhibition at 24 h, 100 µM [5] [%]",MIC (Staphylococcus aureus [6]) [µg/mL],inhibition [7] [%],MIC (Staphylococcus aureus [8]) [µg/mL],IC50 (Dihydrofolate reductase) [nM]
COc1cc(C(C)C)c(Oc2cnc(N)nc2N)cc1-c1cc(C)cc(C)c1,0.5,68.8,8,2,29.7,0.5,64.6,16,–
COc1cc(C(C)C)c(Oc2cnc(N)nc2N)cc1-c1ccc(C(F)(F)F)c(Cl)c1,1,41.9,4,4,42.1,2,65.7,4,–
CC(C)c1cc(O)c(I)cc1Oc1cnc(N)nc1N,0.125,3,4,0.5,30.1,0.125,61.7,4,–
COc1cc(C(C)C)c(Oc2cnc(N)nc2N)cc1-c1ccccc1,0.5,74.2,32,2,49.2,0.25,–,32,–
COc1cc(C(C)C)c(Oc2cnc(N)nc2N)cc1-c1cc(C(F)(F)F)cc(C(F)(F)F)c1,4,64.2,8,8,38.6,8,> 100,8,–
CCc1cc(Oc2cnc(N)nc2N)c(C(C)C)cc1OC,0.25,8.5,16,2,38.8,0.125,–,16,24.7
COc1cc(C(C)C)c(Oc2cnc(N)nc2N)cc1-c1ccccc1Cl,4,29,32,16,37.8,4,74.3,32,–
CCc1cc(Oc2cnc(N)nc2N)c(C(C)CC)cc1OC (configuration not stated),1,48.4,16,4,23.2,1,4.32,32,–
CC(C)c1cc(OCCc2ccccc2)c(I)cc1Oc1cnc(N)nc1N,0.125,33.7,4,2,62,0.125,76.4,4,–
CCCCCCOc1cc(C(C)C)c(Oc2cnc(N)nc2N)cc1I,1,66,8,8,41.5,1,42.9,4,–
CC(C)c1cc(OCC2CC2)c(-c2ccc(OC(F)(F)F)cc2)cc1Oc1cnc(N)nc1N,0.5,31.3,2,4,22.9,0.5,78.9,4,–
COc1cc(C(C)C)c(Oc2cnc(N)nc2N)cc1-c1ccc(Cl)c(Cl)c1,0.5,34.1,8,2,41,3,60.8,8,–
COc1cc(Cc2cnc(N)nc2N)cc(OC)c1OC [TRIMETHOPRIM],0.5,8.06,16,32,2.93,0.5,–,16,–
COc1cc(C(C)C)c(Oc2cnc(N)nc2N)cc1C,1,57.3,16,4,15.6,1,65.9,32,–
CC(C)c1cc(OCC2CC2)c(-c2cc(Cl)cc(Cl)c2)cc1Oc1cnc(N)nc1N,0.5,35.8,2,2,27.5,0.5,89.2,4,–
CCCCOc1cc(C(C)C)c(Oc2cnc(N)nc2N)cc1-c1ccc(C(F)(F)F)cc1,2,42.3,4,4,40.2,4,90.9,4,–
CCC(C)Oc1cc(C(C)C)c(Oc2cnc(N)nc2N)cc1I (configuration not stated),0.016,70.7,4,1,44.6,0.016,50.8,4,–
